Laboratory results reported in patent US9630977B2, “Cephalosporin derivatives and pharmaceutical compositions thereof” (Legochem Biosciences, Inc., priority 2011, dated 2017).
In brackets after ≈: the same amount, converted by molar mass. Where two headings read alike, the source gives them in different places.

How the values were obtained:
Assay in all cases: In vitro antibacterial activity test (broth microdilution)
Type in all cases: cell-based
K. pneumoniae β10 = settings: K. pneumoniae β10
Procedure: (§1) To evaluate antibacterial activity of each of the compounds of Examples 1 to 68, in vitro antibacterial activity test was performed.
(§2) The in vitro antibacterial activity was evaluated by measuring MIC90 (ug/mL) of each of the compounds of Examples 1 to 68, which is defined as the lowest concentration of an antibiotic that will inhibit the visible growth of 90% of microorganisms after incubation as compared with a control group to which the antibiotic is not treated. MIC90 values were measured by the broth microdilution method developed by the Clinical and Laboratory Standards Institute (CLSI) (see CLSI M7-A5, Methods for Dilution Antimicrobial Susceptibility Test for Bacteria that Grow Aerobically-Fifth Edition (2000): CLSI, Villanova, Pa.).
(§3) In vitro antibacterial activity was measured with respect to the following 19 clinical isolates: M. catarrhalis; P. aeruginosa (5 strains); K. pneumoniae (6 strains); A. baumannii (3 strains); E. coli (2 strains); A. calcoaceticus; and E. cloacae.
(§4) Test compounds each (the cephalosporin derivative compounds prepared in Examples 1 to 68) were dissolved in DMSO at the concentration of 10,240 ug/mL, were diluted by two fold with DMSO, and then were diluted by twenty fold with sterilized distilled water. The final concentration in the antibacterial activity test was in the range of […] to 128 ug/mL, and the final concentration of DMSO used as an adjuvant was 2.5% (V/V).

P. aeruginosa 43 = settings: P. aeruginosa 43
Procedure: as §1, §2, §3, §4

K. pneumoniae β14 = test system: K. pneumoniae β14
Procedure: as §1, §2, §3, §4

P. aeruginosa 37 = test system: P. aeruginosa 37
Procedure: as §1, §2, §3, §4

E. cloacae β19 = test system: E. cloacae β19
Procedure: as §1, §2, §3, §4

E. coli β4 = test system: E. coli β4
Procedure: as §1, §2, §3, §4

A. baumannii 46 = settings: A. baumannii 46
Procedure: as §1, §2, §3, §4

P. aeruginosa 1912E = test system: P. aeruginosa 1912E
Procedure: as §1, §2, §3, §4

P. aeruginosa 6065Y = settings: Pseudomonas aeruginosa, read-out: MIC90
Procedure: as §1, §2, §3, §4

A. baumannii 52 = settings: A. baumannii 52
Procedure: as §1, §2, §3, §4

K. pneumoniae β13 = settings: K. pneumoniae β13
Procedure: as §1, §2, §3, §4

K. pneumoniae β11 = settings: K. pneumoniae β11
Procedure: as §1, §2, §3, §4

A. baumannii 49 = settings: A. baumannii 49
Procedure: as §1, §2, §3, §4

K. pneumoniae 2011E = settings: K. pneumoniae 2011E
Procedure: as §1, §2, §3, §4

[1] = test system: A. calcoaceticus ATCC15473; settings: A. calcoaceticus ATCC15473
Procedure: as §1, §2, §3, §4

E. coli AG100 = test system: E. coli AG100
Procedure: as §1, §2, §3, §4

M. catarrhalis 2524 = settings: Moraxella catarrhalis; M. catarrhalis 2524; read-out: MIC90
Procedure: as §1, §2, §3, §4

P. aeruginosa 40 = test system: P. aeruginosa 40
Procedure: as §1, §2, §3, §4

K. pneumoniae β9 = settings: K. pneumoniae β9
Procedure: as §1, §2, §3, §4

[2] = Klebsiella pneumoniae, read-out: MIC90
[3] = Pseudomonas aeruginosa, read-out: MIC90
[4] = Pseudomonas aeruginosa, 37, P. aeruginosa 37, read-out: MIC90
[5] = Enterobacter cloacae, read-out: MIC90
[6] = Escherichia coli, read-out: MIC90
[7] = Acinetobacter baumannii, read-out: MIC90
[8] = Pseudomonas aeruginosa, 1912E, read-out: MIC90
[9] = Klebsiella pneumoniae, 2011E, read-out: MIC90
[10] = Acinetobacter calcoaceticus, read-out: MIC90
[11] = Escherichia coli, AG100, E. coli AG100, read-out: MIC90
[12] = Pseudomonas aeruginosa, 40, P. aeruginosa 40, read-out: MIC90

| Structure (SMILES) | MIC90 (P. aeruginosa 6065Y) | MIC90 (M. catarrhalis 2524) | MIC90 (K. pneumoniae β10; [2]) | MIC90 (P. aeruginosa 43; [3]) | MIC90 (K. pneumoniae β14; [2]) | MIC90 (P. aeruginosa 37; [4]) | MIC90 (E. cloacae β19; [5]) | MIC90 (E. coli β4; [6]) | MIC90 (A. baumannii 46; [7]) | MIC90 (P. aeruginosa 1912E; [8]) | MIC90 (A. baumannii 52; [7]) | MIC90 (K. pneumoniae β13; [2]) | MIC90 (K. pneumoniae β11; [2]) | MIC90 (A. baumannii 49; [7]) | MIC90 (K. pneumoniae 2011E; [9]) | MIC90 [1, 10] | MIC90 (E. coli AG100; [11]) | MIC90 (P. aeruginosa 40; [12]) | MIC90 (K. pneumoniae β9; [2]) | other results |
| --- | --- | --- | --- | --- | --- | --- | --- | --- | --- | --- | --- | --- | --- | --- | --- | --- | --- | --- | --- | --- |
| CC(C)(O/N=C(\C(=O)N[C@@H]1C(=O)N2C(C(=O)[O-])=C(/C=C/C[n+]3cnc(N)c(NCCNC(=O)c4cc(=O)c(O)cn4O)c3)CSC12)c1csc(N)n1)C(=O)O (some centres unmarked) [Compound 10] | 4 µg/mL (≈ 5 µM) | 0.5 µg/mL (≈ 0.625 µM) |  |  |  |  |  |  |  |  |  |  |  |  |  |  |  |  |  | MIC90 (K. pneumoniae β10): <0.0625 µg/mL; MIC90 (P. aeruginosa 43): 1 µg/mL (≈ 1.25 µM); MIC90 (K. pneumoniae β14): 8 µg/mL (≈ 10 µM); MIC90 (P. aeruginosa 37; P. aeruginosa 37): 2 µg/mL (≈ 2.5 µM); MIC90 (E. cloacae β19): 0.5 µg/mL (≈ 0.625 µM); MIC90 (E. coli β4): 0.5 µg/mL (≈ 0.625 µM); MIC90 (A. baumannii 46): 8 µg/mL (≈ 10 µM); MIC90 (P. aeruginosa 1912E): 4 µg/mL (≈ 5 µM); MIC90 (A. baumannii 52): >128 µg/mL; MIC90 (K. pneumoniae β13): 2 µg/mL (≈ 2.5 µM); MIC90 (K. pneumoniae β11): 32 µg/mL (≈ 40 µM); MIC90 (A. baumannii 49): >128 µg/mL; MIC90 (K. pneumoniae 2011E): 2 µg/mL (≈ 2.5 µM); MIC90 [1]: 2 µg/mL (≈ 2.5 µM); MIC90 (E. coli AG100; E. coli AG100): 0.125 µg/mL (≈ 0.156 µM); MIC90 (P. aeruginosa 40; P. aeruginosa 40): 1 µg/mL (≈ 1.25 µM); MIC90 (K. pneumoniae β9): 0.25 µg/mL (≈ 0.313 µM) |
| CC(C)(O/N=C(\C(=O)N[C@@H]1C(=O)N2C(C(=O)[O-])=C(/C=C/C[n+]3cnc(N)c(NC(=O)CCNC(=O)c4cc(=O)c(O)cn4O)c3)CSC12)c1csc(N)n1)C(=O)O (some centres unmarked) [Compound 12] | 2 µg/mL (≈ 2.42 µM) | 1 µg/mL (≈ 1.21 µM) | 0.25 µg/mL (≈ 0.302 µM) | 1 µg/mL (≈ 1.21 µM) | 8 µg/mL (≈ 9.66 µM) | 8 µg/mL (≈ 9.66 µM) | 4 µg/mL (≈ 4.83 µM) | 0.25 µg/mL (≈ 0.302 µM) | 4 µg/mL (≈ 4.83 µM) | 1 µg/mL (≈ 1.21 µM) | > 128 µg/mL | < 0.0625 µg/mL | 64 µg/mL (≈ 77.3 µM) | > 128 µg/mL | 2 µg/mL (≈ 2.42 µM) | 1 µg/mL (≈ 1.21 µM) | 0.25 µg/mL (≈ 0.302 µM) | 1 µg/mL (≈ 1.21 µM) | 0.25 µg/mL (≈ 0.302 µM) |  |
| CC(C)(O/N=C(\C(=O)N[C@@H]1C(=O)N2C(C(=O)[O-])=C(/C=C/C[n+]3cnc(N)c(NC(=O)CCNC(=O)c4cc(=O)c(O)c[nH]4)c3)CSC12)c1csc(N)n1)C(=O)O (some centres unmarked) [Compound 13] | 8 µg/mL (≈ 9.85 µM) | 2 µg/mL (≈ 2.46 µM) | 1 µg/mL (≈ 1.23 µM) | 4 µg/mL (≈ 4.93 µM) | 8 µg/mL (≈ 9.85 µM) | 8 µg/mL (≈ 9.85 µM) | 8 µg/mL (≈ 9.85 µM) | 2 µg/mL (≈ 2.46 µM) | 8 µg/mL (≈ 9.85 µM) | 2 µg/mL (≈ 2.46 µM) | 128 µg/mL (≈ 158 µM) | 1 µg/mL (≈ 1.23 µM) | 64 µg/mL (≈ 78.8 µM) | > 128 µg/mL | 2 µg/mL (≈ 2.46 µM) | 2 µg/mL (≈ 2.46 µM) | 1 µg/mL (≈ 1.23 µM) | 2 µg/mL (≈ 2.46 µM) | 1 µg/mL (≈ 1.23 µM) |  |
| CC(C)(O/N=C(\C(=O)N[C@@H]1C(=O)N2C(C(=O)[O-])=C(/C=C/C[n+]3cnc(N)c(NC(=O)c4cc(=O)c(O)cn4O)c3)CSC12)c1csc(N)n1)C(=O)O (some centres unmarked) [Compound 14] | 2 µg/mL (≈ 2.64 µM) | 0.25 µg/mL (≈ 0.33 µM) | 0.5 µg/mL (≈ 0.661 µM) | 0.25 µg/mL (≈ 0.33 µM) | 8 µg/mL (≈ 10.6 µM) | 16 µg/mL (≈ 21.1 µM) | 64 µg/mL (≈ 84.6 µM) | 1 µg/mL (≈ 1.32 µM) | 2 µg/mL (≈ 2.64 µM) | 1 µg/mL (≈ 1.32 µM) | 8 µg/mL (≈ 10.6 µM) | 0.5 µg/mL (≈ 0.661 µM) | 64 µg/mL (≈ 84.6 µM) | > 128 µg/mL | 2 µg/mL (≈ 2.64 µM) | 0.25 µg/mL (≈ 0.33 µM) | 0.25 µg/mL (≈ 0.33 µM) | 0.25 µg/mL (≈ 0.33 µM) | 2 µg/mL (≈ 2.64 µM) |  |
| CC(C)(O/N=C(\C(=O)N[C@@H]1C(=O)N2C(C(=O)[O-])=C(C[n+]3cnc(N)c(NCCNC(=O)c4cc(=O)c(O)cn4O)c3)CSC12)c1nc(N)sc1Cl)C(=O)O (some centres unmarked) [Compound 15] | 1 µg/mL (≈ 1.24 µM) | 0.25 µg/mL (≈ 0.309 µM) | 0.25 µg/mL (≈ 0.309 µM) | 0.25 µg/mL (≈ 0.309 µM) | 128 µg/mL (≈ 158 µM) | 0.125 µg/mL (≈ 0.155 µM) | 32 µg/mL (≈ 39.6 µM) | 16 µg/mL (≈ 19.8 µM) | 128 µg/mL (≈ 158 µM) | 0.5 µg/mL (≈ 0.619 µM) | 2 µg/mL (≈ 2.47 µM) | 2 µg/mL (≈ 2.47 µM) | 64 µg/mL (≈ 79.2 µM) | 8 µg/mL (≈ 9.9 µM) | 8 µg/mL (≈ 9.9 µM) | 0.5 µg/mL (≈ 0.619 µM) | 2 µg/mL (≈ 2.47 µM) | 0.5 µg/mL (≈ 0.619 µM) | 4 µg/mL (≈ 4.95 µM) |  |
